Assay results as given in patent US20100086931A1, “METHOD FOR ASSAYING ACTION OF ANTITUMOR AGENT USING DECREASE IN GENE EXPRESSION LEVEL AS INDEX” (Eisai R&D Management Co., Ltd., priority 2007, published 2010).

Tested on: peripheral blood mononuclear cells (PBMC)
Assay: qPCR (TaqMan) measurement of mRNA expression in PBMC treated with compound A
Type: cell-based, human
Conditions: untreated cells = 1, corrected by 18S rRNA
From the text: Since it is not easy to obtain a cancer tissue clinically, the measurement of the marker in hemocytes readily obtainable in peripheral blood would be more useful. Specifically peripheral blood was taken from three normal individuals (volunteers) and peripheral blood mononuclear cells were purified and treated with compound A, followed by measurement of change in expression of the gene (mRNA) by qPCR.
RNA samples were first prepared in accordance with the steps described in Example 2 (1) and (2).
Subsequently RNA was prepared to 30 ng/μl and cDNA was synthesized by using TaqMan Reverse Transcription Reagents (Applied Biosystems). The expression level of SLC25A19, TRAPPC4, GTF2H1, Id1, EDN1, ZCCHC6, HNRPA2B1, and HSPA9B was amplified with TaqMan Gene Expression Assays (catalog numbers below) (Applied Biosystems) as a probe by using TaqMan Universal PCR Master Mix (Applied Biosystems).
Reagents were prepared in accordance with the protocol, and measurement was carried out with ABI7900 (Applied Biosystems). Measured values were corrected by using the expression level of 18S rRNA (Hs99999901_s1, Applied Biosystems) as an internal control. The expression level of each gene was calculated with the expression level in the cells untreated with compound A as 1. […] In Table 3, for each gene evaluated, abbreviated name (Gene Symbol), accession number (Accession), alias name (Synonym), gene name (Gene Name), and the expression level upon treatment with varied concentration of E7107 (E7107 (nM)) were respectively shown.

## CCC(O)C(C)C1OC1CC(C)(O)/C=C/C=C(\C)C1OC(=O)CC(O)CCC(C)(O)C(OC(=O)N2CCN(C3CCCCCC3)CC2)/C=C/C1C (centres unmarked) [E7107, (8E,12E,14E)-7-((4-Cycloheptylpiperazin-1-yl)carbonyl)oxy-3,6,16,21-tetrahydroxy-6,10,12,16,20-pentamethyl-18,19-epoxytricosa-8,12,14-trien-11-olide]
3 nM
  EDN1 mRNA expression level (qPCR): 0.45
  GTF2H1 mRNA expression level (qPCR): 0.22
  HNRPA2B1 mRNA expression level (qPCR): 0.48
  HSPA9 mRNA expression level (qPCR): 0.39
  ID1 mRNA expression level (qPCR): 0.5
  SLC25A19 mRNA expression level (qPCR): 0.11
  TRAPPC4 mRNA expression level (qPCR): 0.12
  ZCCHC8 mRNA expression level (qPCR): 0.49
10 nM
  EDN1 mRNA expression level (qPCR): 0.2
  GTF2H1 mRNA expression level (qPCR): 0.07
  HNRPA2B1 mRNA expression level (qPCR): 0.29
  HSPA9 mRNA expression level (qPCR): 0.26
  ID1 mRNA expression level (qPCR): 0.15
  SLC25A19 mRNA expression level (qPCR): 0.02
  TRAPPC4 mRNA expression level (qPCR): 0.02
  ZCCHC8 mRNA expression level (qPCR): 0.19
30 nM
  EDN1 mRNA expression level (qPCR): 0.11
  GTF2H1 mRNA expression level (qPCR): 0.05
  HNRPA2B1 mRNA expression level (qPCR): 0.24
  HSPA9 mRNA expression level (qPCR): 0.17
  ID1 mRNA expression level (qPCR): 0.09
  SLC25A19 mRNA expression level (qPCR): 0.01
  TRAPPC4 mRNA expression level (qPCR): 0.01
